From the NIST ThermoML archive (doi:10.1016/j.jct.2013.05.051)

Test: xn = mol fraction of the nth substance listed
Details: Liquid, Vibrating tube method

CCCCCCCO [heptan-1-ol] + CCCCCCC
mass density [kg/m3]
Details | x1 = 0.1493 | x1 = 0.3215 | x1 = 0.5226 | x1 = 0.6698 | x1 = 0.8469 | x1 = 1
313.15 K, 50000 kPa | 725.8 | 748 | 774.1 | 793.9 | 823.8 | 837.2
313.15 K, 55000 kPa | 728.8 | 750.9 | 776.9 | 796.6 | 826.4 | 839.7
313.15 K, 60000 kPa | 731.8 | 753.8 | 779.6 | 799.2 | 828.8 | 842.1
313.15 K, 65000 kPa | 734.6 | 756.5 | 782.2 | 801.8 | 831.2 | 844.4
313.15 K, 70000 kPa | 737.3 | 759.1 | 784.8 | 804.2 | 833.6 | 846.7
313.15 K, 80000 kPa | 742.5 | 764.2 | 789.6 | 808.9 | 838 | 851.1
313.15 K, 90000 kPa | 747.5 | 769 | 794.3 | 813.5 | 842.4 | 855.3
313.15 K, 100000 kPa | 752.1 | 773.6 | 798.7 | 817.7 | 846.4 | 859.3
313.15 K, 110000 kPa | 756.6 | 778 | 803 | 821.9 | 850.4 | 863.2
313.15 K, 120000 kPa | 760.8 | 782.1 | 807 | 825.8 | 854.2 | 867
313.15 K, 130000 kPa | 765 | 786.2 | 810.9 | 829.7 | 857.9 | 870.6
313.15 K, 140000 kPa | 768.9 | 790.1 | 814.7 | 833.4 | 861.5 | 874.2
333.15 K, 100 kPa | 669.3 | 693.9 | 722.8 | 745 | 778 | 793.3
333.15 K, 1000 kPa | 670.5 | 694.9 | 723.7 | 745.8 | 778.8 | 794
333.15 K, 5000 kPa | 675.1 | 699.1 | 727.6 | 749.5 | 782 | 797.1
333.15 K, 10000 kPa | 680.5 | 704.1 | 732.1 | 753.7 | 785.9 | 800.7
333.15 K, 15000 kPa | 685.6 | 708.9 | 736.5 | 757.8 | 789.7 | 804.3
333.15 K, 20000 kPa | 690.2 | 713.2 | 740.5 | 761.7 | 793.1 | 807.7
333.15 K, 25000 kPa | 694.5 | 717.3 | 744.4 | 765.3 | 796.5 | 810.8
333.15 K, 30000 kPa | 698.8 | 721.2 | 748.1 | 768.8 | 799.7 | 813.9
333.15 K, 35000 kPa | 702.7 | 725 | 751.6 | 772.1 | 802.8 | 816.9
333.15 K, 40000 kPa | 706.4 | 728.5 | 755 | 775.3 | 805.8 | 819.8
333.15 K, 45000 kPa | 710 | 731.9 | 758.1 | 778.3 | 808.7 | 822.4
333.15 K, 50000 kPa | 713.5 | 735.2 | 761.3 | 781.4 | 811.5 | 825.2
333.15 K, 55000 kPa | 716.7 | 738.3 | 764.3 | 784.2 | 814.2 | 827.8
333.15 K, 60000 kPa | 719.9 | 741.3 | 767.2 | 787 | 816.8 | 830.3
333.15 K, 65000 kPa | 723 | 744.3 | 770 | 789.8 | 819.4 | 832.9
333.15 K, 70000 kPa | 726 | 747.2 | 772.8 | 792.4 | 821.9 | 835.3
333.15 K, 80000 kPa | 731.6 | 752.6 | 778 | 797.4 | 826.7 | 839.9
333.15 K, 90000 kPa | 737 | 757.8 | 783 | 802.3 | 831.3 | 844.5
333.15 K, 100000 kPa | 742 | 762.6 | 787.7 | 806.8 | 835.6 | 848.7
333.15 K, 110000 kPa | 746.8 | 767.3 | 792.2 | 811.2 | 839.8 | 852.8
333.15 K, 120000 kPa | 751.3 | 771.6 | 796.4 | 815.4 | 843.8 | 856.8
333.15 K, 130000 kPa | 755.6 | 775.8 | 800.6 | 819.4 | 847.7 | 860.5
333.15 K, 140000 kPa | 759.8 | – | – | – | – | –
